In the NIST ThermoML archive (doi:10.1016/j.jct.2006.03.015):

Legend:
[1] = Crystal; visual observation
[2] = mn = molality of the nth substance listed, in mol/kg; conditions: 101 kPa, Liquid; for apparent molar heat capacity: Flow calorimetry

CC(=O)N[C@@H](CCCCN)C(N)=O.Cl [(S)-2-acetamido-6-aminohexanamide hydrochloride]
Conditions	Normal melting temperature [°C]
[1]	144.4

CC(=O)N[C@@H](CCCCN)C(N)=O.Cl [(S)-2-acetamido-6-aminohexanamide hydrochloride] + O
[2]
Conditions	apparent molar heat capacity [J/K/mol]	mass density [kg/m3]
288.15 K, m1 = 0.02301	333.4	1000.28
288.15 K, m1 = 0.02858	336.3	1000.57
288.15 K, m1 = 0.0372	339.9	1001.01
288.15 K, m1 = 0.04378	339.8	1001.34
288.15 K, m1 = 0.05396	339.8	1001.86
288.15 K, m1 = 0.06411	343.1	1002.37
288.15 K, m1 = 0.07273	342	1002.8
288.15 K, m1 = 0.08089	341.3	1003.21
288.15 K, m1 = 0.08886	340.4	1003.6
288.15 K, m1 = 0.0972	343.1	1004.02
298.15 K, m1 = 0.02795	377.8	998.439
298.15 K, m1 = 0.03712	377.9	998.893
298.15 K, m1 = 0.04507	379.4	999.283
298.15 K, m1 = 0.05411	379.1	999.729
298.15 K, m1 = 0.06514	378.6	1000.27
298.15 K, m1 = 0.07363	379	1000.68
298.15 K, m1 = 0.08347	378.8	1001.16
298.15 K, m1 = 0.08995	379	1001.47
313.15 K, m1 = 0.02397	404.5	993.394
313.15 K, m1 = 0.03035	411.1	993.703
313.15 K, m1 = 0.03705	406.4	994.027
313.15 K, m1 = 0.04583	409.4	994.449
313.15 K, m1 = 0.05213	–	994.754
313.15 K, m1 = 0.05469	404	–
313.15 K, m1 = 0.05752	–	995.015
313.15 K, m1 = 0.06361	405.8	995.306
313.15 K, m1 = 0.06804	408	995.516
313.15 K, m1 = 0.07802	406.1	995.99
328.15 K, m1 = 0.02685	429	986.984
328.15 K, m1 = 0.03581	428	987.412
328.15 K, m1 = 0.04352	428.9	987.778
328.15 K, m1 = 0.05273	429.2	988.207
328.15 K, m1 = 0.06308	431.9	988.699
328.15 K, m1 = 0.07041	431.9	989.042
328.15 K, m1 = 0.08088	432.4	989.527
328.15 K, m1 = 0.0877	433.2	989.846

CC(=O)N[C@@H](CCC(N)=O)C(N)=O [(S)-2-acetamidopentanediamide]
Conditions	Normal melting temperature [°C]
[1]	192.4

CC(=O)N[C@@H](CCC(N)=O)C(N)=O [(S)-2-acetamidopentanediamide] + O
[2]
Conditions	apparent molar heat capacity [J/K/mol]	mass density [kg/m3]
288.15 K, m1 = 0.03981	353.8	1000.96
288.15 K, m1 = 0.04349	350.3	1001.13
288.15 K, m1 = 0.0507	353.7	1001.46
288.15 K, m1 = 0.05943	355.1	1001.86
288.15 K, m1 = 0.06967	356.4	1002.33
288.15 K, m1 = 0.07857	350.8	1002.75
288.15 K, m1 = 0.08453	356.6	1003.03
288.15 K, m1 = 0.09265	354.1	1003.38
288.15 K, m1 = 0.1008	353.9	1003.78
298.15 K, m1 = 0.04537	377.9	999.104
298.15 K, m1 = 0.05783	383.7	999.659
298.15 K, m1 = 0.06765	378	1000.1
298.15 K, m1 = 0.08263	379.9	1000.77
298.15 K, m1 = 0.09722	382.3	1001.41
298.15 K, m1 = 0.1055	382.8	1001.79
298.15 K, m1 = 0.1217	379.5	1002.51
298.15 K, m1 = 0.133	381.1	1003.01
298.15 K, m1 = 0.1455	382.4	1003.56
313.15 K, m1 = 0.03917	407.2	–
313.15 K, m1 = 0.04565	409.1	994.219
313.15 K, m1 = 0.05555	410.8	994.65
313.15 K, m1 = 0.06371	410.7	995.007
313.15 K, m1 = 0.07398	410.7	995.463
313.15 K, m1 = 0.08191	408.9	995.809
313.15 K, m1 = 0.08959	408.6	996.143
313.15 K, m1 = 0.1002	409	996.596
328.15 K, m1 = 0.03787	430.2	987.321
328.15 K, m1 = 0.04577	430	987.659
328.15 K, m1 = 0.05585	431.2	988.092
328.15 K, m1 = 0.0626	431.6	988.383
328.15 K, m1 = 0.07189	432.4	988.783
328.15 K, m1 = 0.08069	430.4	989.147
328.15 K, m1 = 0.0903	429.9	989.565
328.15 K, m1 = 0.1056	–	990.212

CC(=O)N[C@@H](CC(N)=O)C(N)=O [(S)-2-acetamidosuccinamide]
Conditions	Normal melting temperature [°C]
[1]	244

CC(=O)NC(=O)[C@@H](N)Cc1ccc(O)cc1 [N-Acetyl-L-tyrosinamide]
Conditions	Normal melting temperature [°C]
[1]	225

CC(=O)NC(=O)[C@@H](N)Cc1ccc(O)cc1 [N-Acetyl-L-tyrosinamide] + O
[2]
Conditions	apparent molar heat capacity [J/K/mol]	mass density [kg/m3]
288.15 K, m1 = 0.01175	508.1	999.692
288.15 K, m1 = 0.012	504.2	999.707
288.15 K, m1 = 0.01302	504.9	999.758
288.15 K, m1 = 0.01344	509	999.773
288.15 K, m1 = 0.01395	505.4	999.805
288.15 K, m1 = 0.01495	502.3	999.855
288.15 K, m1 = 0.01591	501.9	999.904
288.15 K, m1 = 0.01705	500.4	999.955
288.15 K, m1 = 0.0179	501.6	1000
288.15 K, m1 = 0.01902	503.4	1000.05
288.15 K, m1 = 0.01984	502.6	1000.1
298.15 K, m1 = 0.01196	517	997.637
298.15 K, m1 = 0.013	517.7	997.684
298.15 K, m1 = 0.01383	515.6	997.725
298.15 K, m1 = 0.01493	517	997.781
298.15 K, m1 = 0.01497	–	997.785
298.15 K, m1 = 0.01592	516.9	997.83
298.15 K, m1 = 0.017	–	997.885
298.15 K, m1 = 0.01809	519.4	997.94
298.15 K, m1 = 0.01905	–	997.984
298.15 K, m1 = 0.02018	511.5	998.035
313.15 K, m1 = 0.01197	542.3	992.782
313.15 K, m1 = 0.01299	543.8	992.827
313.15 K, m1 = 0.01401	543	992.874
313.15 K, m1 = 0.01501	545.3	992.925
313.15 K, m1 = 0.01596	546.3	992.967
313.15 K, m1 = 0.01693	541.4	993.013
313.15 K, m1 = 0.01787	543.5	993.057
313.15 K, m1 = 0.01892	542.6	993.101
328.15 K, m1 = 0.01201	553.5	986.242
328.15 K, m1 = 0.01295	552.2	986.289
328.15 K, m1 = 0.01394	549.9	986.33
328.15 K, m1 = 0.0149	556.4	986.378
328.15 K, m1 = 0.0159	554.4	986.421
328.15 K, m1 = 0.01694	552	986.462
328.15 K, m1 = 0.01796	555.6	986.514
328.15 K, m1 = 0.0189	555.1	986.548
